One experiment has as its system MDA-MB-231 (breast). The experiment is described as follows: In vitro cytotoxic activity (MTT) assay, MDA-MB-231. It is filed as cell-based. The conditions noted are these: Homo sapiens; MDA-MB-231 (breast) cells, 96 hours exposure; read-out: IC50, 50% inhibition of cell proliferation. How it is done: (§1) Compounds 1-12 were screened for their in vitro cytotoxic activity utilizing a 3-(4,5-dimethyl-thiazol-2-yl)-2,5-diphenyltetrazolium bromide (MTT) assay against selected cancer human cell lines consisting of PC3 (prostate), HCT116 (colon), A375 (melanoma), H1299 (lung), MIAPaCa-2 (pancreas), HL60 (leukemia), MCF7 (breast), MDA-MB-231 (breast) (T. Mosmann, J. Immunol. Meth., 1983, 65, 55-63). The cells were cultured at 37° C. in RMPI1640 medium supplemented with 10% fetal bovine serum, 50 IU/mL penicillin, and 50 μg/mL streptomycin in a 5% CO2 incubator. All cells were sub-cultured 3 times/week by trypsinisation. Viable cells were seeded and allowed to adhere for 12 h before a test drug was added in 96-well plates at an initial density of 1.0×10^5 cells/mL. Tumour cell lines were separately exposed to various concentrations of the tested compounds followed by incubation at a temperature of 37° C. during 96 h inside a medium of fresh RMPI 1640. Cells were subsequently incubated at 37° C. using MTT at 0.5 mg/mL during 4 h. After removal of supernatant, formazan crystals were dissolved in isopropanol and the optical density was measured at 570 nm. CX-4945 was used as a positive control.

Another experiment relates to MCF7 (breast). The experiment is described as follows: In vitro cytotoxic activity (MTT) assay, MCF7. It is filed as cell-based. The conditions noted are these: Homo sapiens; MCF7 (breast) cells, 96 hours exposure; read-out: IC50, 50% inhibition of cell proliferation. How it is done:
as §1

A further experiment has as its system HL60 (leukemia). Briefly: In vitro cytotoxic activity (MTT) assay, HL60. It is filed as cell-based. The conditions noted are these: Homo sapiens, HL-60; HL60 (leukemia) cells, 96 hours exposure; read-out: IC50, 50% inhibition of cell proliferation. On the procedure: as §1
The test system of the next experiment is H1299 (lung). Briefly: In vitro cytotoxic activity (MTT) assay, H1299. The class given is cell-based. The conditions noted are these: Homo sapiens, NCI-H1299; H1299 (lung) cells, 96 hours exposure; read-out: IC50, 50% inhibition of cell proliferation. On the procedure: as §1
Another experiment has as its system PC3 (prostate). Briefly: In vitro cytotoxic activity (MTT) assay, PC3. The conditions noted are these: Homo sapiens, Prostate cell; PC3 (prostate) cells, 96 hours exposure; read-out: IC50, 50% inhibition of cell proliferation. The class given is cell-based. How it is done: as §1
For the next experiment, the system named is A375 (melanoma). The experiment is described as follows: In vitro cytotoxic activity (MTT) assay, A375. It is filed as cell-based. The conditions noted are these: Homo sapiens, A-375; A375 (melanoma) cells, 96 hours exposure; read-out: IC50, 50% inhibition of cell proliferation. How it is done:
as §1

Another experiment has as its system MIAPaCa-2 (pancreas). The experiment is described as follows: In vitro cytotoxic activity (MTT) assay, MIAPaCa-2. The conditions noted are these: Homo sapiens, MIA PaCa-2; MIAPaCa-2 (pancreas) cells, 96 hours exposure; read-out: IC50, 50% inhibition of cell proliferation. The class given is cell-based. On the procedure: as §1
A further experiment concerns HCT116 (colon). The experiment is described as follows: In vitro cytotoxic activity (MTT) assay, HCT116. It is filed as cell-based. The conditions noted are these: Homo sapiens, HCT-116; HCT116 (colon) cells, 96 hours exposure; read-out: IC50, 50% inhibition of cell proliferation. How it is done:
as §1

Experiment [1] deals with T1, recombinant human CK2 (RRββ-holoenzyme) (Homo sapiens, UniProt P68400).
T1 construct: purchased Millipore
T1 sequence (P68400 whole entry): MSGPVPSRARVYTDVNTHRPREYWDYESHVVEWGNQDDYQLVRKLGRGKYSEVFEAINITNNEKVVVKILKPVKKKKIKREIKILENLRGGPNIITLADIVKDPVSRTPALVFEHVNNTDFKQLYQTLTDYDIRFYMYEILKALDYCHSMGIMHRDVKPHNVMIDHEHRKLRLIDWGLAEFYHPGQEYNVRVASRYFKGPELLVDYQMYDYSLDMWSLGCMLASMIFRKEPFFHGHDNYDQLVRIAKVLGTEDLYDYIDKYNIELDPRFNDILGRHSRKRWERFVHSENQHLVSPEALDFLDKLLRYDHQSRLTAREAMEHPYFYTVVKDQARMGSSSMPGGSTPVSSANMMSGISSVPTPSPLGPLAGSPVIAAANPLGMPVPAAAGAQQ
T1 sequence (P67870 whole entry partner): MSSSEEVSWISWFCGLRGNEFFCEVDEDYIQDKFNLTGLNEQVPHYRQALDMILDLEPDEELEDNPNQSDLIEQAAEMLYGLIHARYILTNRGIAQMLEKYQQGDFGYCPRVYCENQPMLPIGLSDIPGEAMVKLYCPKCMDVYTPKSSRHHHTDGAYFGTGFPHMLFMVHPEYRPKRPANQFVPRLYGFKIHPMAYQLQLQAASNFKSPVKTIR
Briefly: CK2 kinase assay (33P-ATP, filter plate). It is filed as biochemical. The conditions noted are these: final ATP 15 μM, 10 min at 30° C.; read-out: protein kinase CK2 IC50. On the procedure: CK2 Kinase Assay was conducted using the protocol as described in Pierre F. et al; J. Med Chem. 2011, 54, 635-654. The tested compounds in aqueous solution were added at a volume of 10 μL to a reaction mixture comprising 10 μL of assay dilution buffer (ADB; 20 mM MOPS, pH 7.2, 25 mM β-glycerol phosphate, 5 mM EGTA, 1 mM sodium orthovanadate, and 1 mM dithiothreitol), 10 μL of substrate peptide (RRRDDDSDDD, dissolved in ADB at a concentration of 1 mM), 10 μL of recombinant human CK2 (RRββ-holoenzyme, 25 ng dissolved in ADB; Millipore). Reactions were initiated by the addition of 10 μL of ATP solution (90% 75 mMMgCl2, 75 μM ATP (final ATP concentration: 15 μM) dissolved in ADB; 10% [γ-33P] ATP (stock 1 mCi/100 μL; 3000 Ci/mmol (Perkin-Elmer) and maintained for 10 min at 30° C. The reactions were quenched with 100 μL of 0.75% phosphoric acid and then transferred to and filtered through a phosphor cellulose filter plate (Millipore). After washing each well five times with 0.75% phosphoric acid, the plate was dried under vacuum for 5 min and, following the addition of 15 μL of scintillation fluid to each well, the residual radioactivity was measured using a Wallac […]. The IC50 values were derived from eight concentrations of test inhibitors.

`Clc1ccc(Nc2c3ccncc3nc3c2[nH]c2cnccc23)cc1` [Compound 1, N-(4-chlorophenyl)-11H-pyrido[4′,3′:4,5]pyrrolo[3,2-b][1,7]naphthyridin-10-amine]: the IC50 in the experiment on MDA-MB-231 (breast) turned out to be 5200 nM; in the experiment on MCF7 (breast) it was 8500 nM; in the experiment on HL60 (leukemia), 3100 nM; in the experiment with H1299 (lung), 2400 nM; with PC3 (prostate), 1300 nM; with A375 (melanoma) it was 3400 nM. In addition, the IC50 in the experiment on MIAPaCa-2 (pancreas) amounted to 1600 nM; in the experiment with HCT116 (colon) it was 1500 nM; in experiment [1], 5 nM.

Values taken from patent US11932641B1, “Pyrido[4′,3′:4,5]pyrrolo[3,2-b][1,7]naphthyridine compounds as CK2 inhibitors” (KING FAISAL UNIVERSITY, priority 2023, dated 2024).
